Laboratory results as given in ChEMBL document CHEMBL1142580, “Malettinins B-D: new polyketide metabolites from an unidentified fungal colonist of Hypoxylon Stromata (NRRL 29110)” (2005).

Key:
Format in all cases: functional
Conditions in all cases: read-out: IZ
Candida albicans = experiment: Antimicrobial activity against Candida albicans ATCC 90029 at 250 ug/disk by standard disk assay
Bacillus subtilis = experiment: Antimicrobial activity against Bacillus subtilis ATCC 6051 at 200 ug/disk by standard disk assay
Staphylococcus aureus = experiment: Antimicrobial activity against Staphylococcus aureus ATCC 29213 at 200 ug/disk by standard disk assay

SMILES | zone of inhibition at 250 µg/disc (Candida albicans) [mm] | zone of inhibition at 200 µg/disc (Bacillus subtilis) [mm] | zone of inhibition at 200 µg/disc (Staphylococcus aureus) [mm]
Cc1cc(=O)c(O)cc2c1C[C@@H](C)[C@]1(OC[C@@H](C)[C@H]1O)O2 [MALETTININ B] | 19 | 26 | 24
Cc1cc(=O)c(O)cc2c1C[C@@H](C)[C@@]1(OC[C@@H](C)[C@H]1O)O2 [MALETTININ C] | 13 | 15 | 12
